Converted amounts (≈) assume the structure as drawn.
System: Staphylococcus aureus
Assay: Antibacterial against Staphylococcus aureus
Type: functional
Conditions: for MIC: Staphylococcus aureus

Row | SMILES | -logMIC | MIC
1 | O=c1[nH]c(-c2ccc(Oc3ccccc3)cc2)no1 | 0.686 | 128 µg/mL (≈ 503 µM)
2 | Nc1c[nH]nc1-c1nc(-c2ccc(Oc3ccc(C(F)(F)F)cc3)cc2)no1 | 4.573 | –
3 | Oc1ccc(-c2nc(-c3ccc(Oc4ccccc4)cc3)no2)cc1 | 5.8 | –
4 | C#Cc1c[nH]nc1-c1nc(-c2ccc(Oc3ccc(C(F)(F)F)cc3)cc2)no1 | 7.369 | 0.25 µg/mL (≈ 0.631 µM)
5 | N#Cc1c[nH]nc1-c1nc(-c2ccc(Oc3ccc(C(F)(F)F)cc3)cc2)no1 | 5.292 | –
6 | OCC#Cc1c[nH]nc1-c1nc(-c2ccc(Oc3ccc(C(F)(F)F)cc3)cc2)no1 | 4.669 | –
7 | Oc1c(F)cc(-c2nc(-c3ccc(Oc4ccc(C(F)(F)F)cc4)cc3)no2)cc1F | 5.381 | –
8 | Fc1ccc(Oc2ccc(-c3noc(-c4ccc(Br)cc4)n3)cc2)cc1 | 1.167 | 128 µg/mL (≈ 311 µM)
9 | NC(=O)c1ccc(-c2nc(-c3ccc(Oc4ccc(F)cc4)cc3)no2)cc1 | 1.158 | 128 µg/mL (≈ 341 µM)
10 | Oc1ccccc1-c1nc(-c2ccc(Oc3ccccc3)cc2)no1 | 0.948 | 128 µg/mL (≈ 387 µM)
11 | Nc1c[nH]nc1-c1nc(-c2ccc(Oc3ccccc3)cc2)no1 | 2.994 | –
12 | FC(F)(F)c1ccc(Oc2ccc(-c3noc(-c4n[nH]cc4NC4CCCC4)n3)cc2)cc1 | 1.269 | 128 µg/mL (≈ 281 µM)
13 | CCOP(=O)(OCC)c1c[nH]nc1-c1nc(-c2ccc(Oc3ccc(C(F)(F)F)cc3)cc2)no1 | 1.379 | 128 µg/mL (≈ 252 µM)
14 | c1ccc(Oc2ccc(-c3noc(-c4ccncc4)n3)cc2)cc1 | 0.902 | 128 µg/mL (≈ 406 µM)
15 | Nc1cncc(-c2nc(-c3ccc(Oc4ccc(C(F)(F)F)cc4)cc3)no2)c1 | 1.135 | 128 µg/mL (≈ 321 µM)
16 | FC(F)(F)c1ccc(Oc2ccc(-c3noc(-c4c[nH]c5ncccc45)n3)cc2)cc1 | 1.194 | 128 µg/mL (≈ 303 µM)

Row | SMILES | -logMIC | MIC
17 | Fc1ccc(Oc2ccc(-c3noc(-c4cc[nH]c4)n3)cc2)cc1 | 0.92 | 128 µg/mL (≈ 398 µM)
18 | Brc1ccc(-c2nc(-c3ccccc3)no2)cc1 | 0.856 | 128 µg/mL (≈ 425 µM)
19 | COc1ccc(-c2nc(-c3ccc(Br)cc3)no2)cc1 | 0.951 | 128 µg/mL (≈ 387 µM)
20 | Cc1nc(-c2ccc(Oc3ccc(C(F)(F)F)cc3)cc2)no1 | 0.917 | 128 µg/mL (≈ 400 µM)
21 | O=[N+]([O-])c1c[nH]nc1-c1nc(-c2ccc(Oc3ccc(F)c(F)c3)cc2)no1 | 5.261 | 2 µg/mL (≈ 5.19 µM)
22 | Oc1ccc(Oc2ccc(-c3noc(-c4ccc(O)cc4)n3)cc2)cc1 | 2.382 | 32 µg/mL (≈ 92.4 µM)
23 | O=C(O)c1cccc(Oc2ccc(-c3noc(-c4ccc(O)cc4)n3)cc2)c1 | 1.766 | 64 µg/mL (≈ 171 µM)
24 | Oc1ccc(-c2nc(-c3ccc(Oc4cccnc4)cc3)no2)cc1 | 0.951 | 128 µg/mL (≈ 386 µM)
25 | O=[N+]([O-])c1ccc(-c2nc(-c3ccc(Oc4ccc(C(F)(F)F)cc4)cc3)no2)cc1F | 1.247 | 128 µg/mL (≈ 287 µM)
26 | Oc1ccc(Oc2ccc(-c3noc(-c4ccc(F)cc4)n3)cc2)cc1 | 1.001 | 128 µg/mL (≈ 367 µM)
27 | Oc1ccc(-c2nc(-c3ccc(Oc4ccncc4)cc3)no2)cc1 | 0.951 | 128 µg/mL (≈ 386 µM)
28 | Clc1ccc(Oc2ccc(-c3noc(-c4n[nH]cc4Cl)n3)cc2)cc1Cl | 6.01 | 1 µg/mL (≈ 2.45 µM)
29 | Oc1ccc(-c2nc(-c3ccc(Oc4ccccc4)c(Cl)c3)no2)cc1 | 5.206 | 2 µg/mL (≈ 5.48 µM)
30 | Oc1ccc(-c2nc(-c3ccc(Oc4ccccc4CBr)cc3)no2)cc1 | 3.969 | 8 µg/mL (≈ 18.9 µM)
31 | Fc1ccc(-c2nc(-c3ccccc3)no2)cc1 | 0.63 | 128 µg/mL (≈ 533 µM)

— ChEMBL document CHEMBL3751781, “Three-dimensional QSAR analysis and design of new 1,2,4-oxadiazole antibacterials” (2016)
